{"source": "patent US20240226100A1", "about": "“CONTROL OF PROTEIN EXPRESSION WITH TMP-PROTAC COMPOUNDS” (THE TRUSTEES OF THE UNIVERSITY OF PENNSYLVANIA, priority 2021, published 2024)", "key": {"[1]": {"tested_on": "FAP-eDHFR DF CAR T cells", "conditions": "1 hour at 37° C., with or without 5 μM unlabeled TMP", "description": "3×10^6 CAR T cells were incubated with 6×10^6 counts per minute (cpm) of [^18F]FPTMP for 60 minutes in the presence or absence of unlabeled 5 μM TMP. Following incubation, cells were centrifuged at 1200 rpm and washed 3 times with cold PBS (Corning). After the third wash, the cell pellet was resuspended in 900 μL of PBS and split into 3 technical replicates of 300 μL. Radiotracer uptake was quantified on a gamma counter (PerkinElmer) and analyzed by dividing counts by the injected dose (ID) of [^18F]FPTMP. The final uptake was reported as a ratio between % ID normalized per 10^6 cells (% ID/10^6 cells) of the [^18F]FPTMP group and the blocked control (i.e. cells that were incubated with both unlabeled TMP and [^18F]FPTMP)."}, "[2]": {"tested_on": "FAP-eDHFR DF CAR T cells", "conditions": "10:1 E:T ratio overnight, I45 huFAP target cells"}, "[3]": {"tested_on": "eDHFR-YFP", "assay": "Inhibitor test in HEK293T eDHFR-YFP+ cells, Western blot", "format": "cell-based, Escherichia coli", "conditions": "inhibitor pre-incubated 1 h, then 100 nM 7c for 12 h", "method": "Cells were then isolated as previously described and prepared for Western blot analysis. For readout by flow cytometry, 3×10^5 HEK293T^eDHFR-YFP+ cells were seeded in a clear (Falcon) 12-well plate (5×10^5 cells/well) in complete media and the cells were treated as described above the following day. Cells were washed, trypsinized, and collected following total of 13 h of incubation, and their YFP expression was analyzed on flow cytometer (BD)."}, "[4]": {"tested_on": "eDHFR-YFP", "assay": "Degradation of eDHFR-YFP in HEK293T eDHFR-YFP+ cells, Western blot with anti-YFP antibody", "format": "cell-based, Escherichia coli", "conditions": "24 h", "method": "HEK293T eDHFR-YFP (HEK293T^eDHFR-YFP+) and OVCAR8 eDHFR-luc (OVCAR8^eDHFR-luc+) cells are prepared in clear (Falcon) 6-well plates (5×10^5 cells/well) and cultured in complete media. Compound 7c is solubilized in 100% DMSO to 10 mM. 10 mM 7c is serially diluted in sterile water accordingly and each dose administered to cells in fresh media at equal volume, such that the final concentration of DMSO in cell media is <1%. Once incubation with drug is completed, media is removed by vacuum, cells are washed with phosphate-buffered saline (PBS), trypsonized at 37° C., quenched with media, and centrifuged (Thermo Scientific Sorvall Legend X1R) at 1000 RPM for 5 minutes. Media and cell debris are removed by vacuum.\nOnce cells are isolated by centrifugation (Thermo Scientific Sorvall Legend X1R), they are solubilized in radioimmunoprecipitation assay (RIPA) lysis buffer with protease inhibitor. Cell lysate is incubated on ice for 30 minutes, sonicated, then centrifuged (Thermo Scientific Sorvall Legend Micro 21R) at 14,800 RPM for 10 minutes. Supernatant is removed and transferred to a new Eppendorf tube.\nUsing Thermo Scientific bicinchoninic acid (BCA) assay kit, total cell protein is quantified and compared to bovine serum albumin (BSA) standards ranging from 10 to 0.625 mg/mL. Cell lysate is aliquoted into a 96-well clear plate (Falcon) and mixed with reagent and shaken at 37° C. for 30 minutes. Samples are analyzed by plate reader (ThermoFisher Varioskan Plusplate), where absorbance is measured at […]. A calibration curve is developed, and samples are prepared to equal mass (mg) of total protein for gel electrophoresis.\nCell lysate is prepared by mixing with 4 uL of loading dye and PBS to give equal total protein and equal total volume across all samples. Each sample is loaded into a NuPage gel (4-12% Bis-tris) and developed in NuPage MES Running Buffer. Once complete, the gel is removed and prepared for protein transfer to membrane. […]"}, "[5]": {"tested_on": "FAP CAR-eDHFR direct fusion (DF)", "assay": "Dose response of surface CAR expression in primary human FAP-eDHFR DF CAR T cells, flow cytometry", "format": "cell-based", "conditions": "different doses, 24 hours", "method": "Generated CAR T cells were pelleted, resuspended in 2% BSA in PBS (Invitrogen), and incubated with Alexa Fluor® 647 AffiniPure F(ab′2) fragment goat anti-mouse IgG (Jackson ImmunoResearch Laboratories) for 30 minutes at room temperature. Stained cells were washed 3 times with PBS, and were analyzed on a flow cytometer (LSR II, BD Biosciences) for CAR and/or BFP expression. All flow data were analyzed using FlowJo software (FlowJo).\nFollowing incubation, the cells were washed and stained with Alexa Fluor® 647 AffiniPure F(ab′2) fragment goat anti-mouse IgG (Jackson ImmunoResearch Laboratories) as described under “Flow Cytometry”, and their surface expression was analyzed on a flow cytometer (LSR II, BD Biosciences).\nData plotted as raw CAR stain fluorescence is shown in the left panel and percent of maximum CAR expression is shown in the right panel.\nValues are reported as percent of maximum CAR expression (i.e. relative to CAR T cells that were treated with vehicle control). Each color represents a different donor (n=3)."}, "[6]": {"tested_on": "eDHFR-YFP", "assay": "Time and dose-dependent degradation of YFP in Jurkat-DYL / Jurkat eDHFR-YFP+ cells, flow cytometry", "format": "cell-based, Escherichia coli", "conditions": "Jurkat-DYL; 4, 8 and 18 h incubation, varying doses", "method": "Likewise, Jurkat eDHFR-YFP (Jurkat^eDHFR-YFP+) cells are seeded in clear (Falcon) 12-well plates (3×10^5 cells/well) in complete media. […]"}, "[7]": {"tested_on": "FAP CAR-eDHFR direct fusion (DF)", "assay": "Inhibitor test in primary human FAP-eDHFR DF CAR T cells, flow cytometry", "format": "cell-based", "conditions": "inhibitor pre-incubated 1 hour, then 100 nM 7c for 4 hours", "method": "Following pre-incubation, either 100 nM 7c or vehicle control DMSO (Sigma) was added to the wells, and cells were incubated with the drug for another 4 hours. Following incubation, the cells were washed and their surface CAR expression was assessed on a flow cytometer (BD Biosciences).\nFollowing pre-incubation, the cells were incubated with 100 nM 7c for 4 hours and their CAR expression was assessed on a flow cytometer."}, "[8]": {"tested_on": "DHFR-YFP (DY) direct fusion protein", "assay": "Degradation mechanism in Jurkat-DYL cells pre-treated with epoxomicin or hydroxychloroquine sulfate, flow cytometry", "format": "cell-based, Escherichia coli", "conditions": "Jurkat-DYL pre-treated with DMSO, epoxomicin or hydroxychloroquine sulfate 2 h, then compound 4 h", "method": "In FIG. 2, flow cytometric analysis is used to measure Jurkat-DYL cells expressing DHFR-YFP (DY) direct fusion protein pre-treated with DMSO, epoxomicin (EPOX), or hydroxychloroquine sulfate (HCS) for 2 hours before DMSO or compound 7b treatment for 4 hours."}}, "note": "Where a name gives a salt, the structure may show the parent alone. Where a SMILES comes first, the peptide text is derived from it. The star is where a group is joined. Cbz = O=C(OCc1ccccc1)*", "data": [{"smiles": "COc1cc(Cc2cnc(N)nc2N)cc(OC)c1OCCC[18F]", "note": "[[18F]FPTMP, [^18F]Fluoropropyl-Trimethoprim]", "values": [{"measurement": "in vitro uptake of radiolabeled TMP", "setting": "[1]", "value": "preserved in vitro uptake"}, {"measurement": "effect of radiotracer exposure on CAR T cell cytotoxic function", "setting": "[2]", "value": "does not affect the effectors' ability to signal and kill target cells"}]}, {"smiles": "CCN(CCO)CCCC(C)Nc1ccnc2cc(Cl)ccc12", "note": "(centres unmarked) [Hydroxychloroquine HCl]", "values": [{"measurement": "effect of inhibitor on eDHFR-YFP degradation induced by 7c", "setting": "[3]", "value": "does not"}]}, {"smiles": "COc1cc(Cc2cnc(N)nc2N)cc(OC)c1OCCCC(=O)NCCOCCOCCNc1cccc2c1C(=O)N(C1CCC(=O)N(C)C1=O)C2=O", "note": "(centres unmarked) [Compound 7f, 4-(4-((2,4-diaminopyrimidin-5-yl)methyl)-2,6-dimethoxyphenoxy)-N-(2-(2-(2-((2-(1-methyl-2,6-dioxopiperidin-3-yl)-1,3-dioxoisoindolin-4-yl)amino)ethoxy)ethoxy)ethyl)butanamide]", "values": [{"measurement": "eDHFR-YFP degradation at 100 nM", "setting": "[4]; 100 nM", "value": "does not induce eDHFR-YFP degradation"}, {"measurement": "downregulation of surface CAR expression in dose response assay", "setting": "[5]", "value": "does not result in downregulation of CAR expression from their surface"}]}, {"smiles": "COc1cc(Cc2cnc(N)nc2N)cc(OC)c1OCC(=O)NCCOCCOCCNc1cccc2c1C(=O)N(C1CCC(=O)NC1=O)C2=O", "note": "(centres unmarked) [Compound 7a, 2-(4-((2,4-diaminopyrimidin-5-yl)methyl)-2,6-dimethoxyphenoxy)-N-(2-(2-(2-((2-(2,6-dioxopiperidin-3-yl)-1,3-dioxoisoindolin-4-yl)amino)ethoxy)ethoxy)ethyl)acetamide]", "values": [{"measurement": "degradation of YFP (eDHFR fusion protein)", "setting": "[6]", "value": "degrade eDHFR fusion proteins to low/no functional expression"}]}, {"smiles": "CC[C@H](C)[C@H](NC(=O)[C@H]([C@@H](C)CC)N(C)C(C)=O)C(=O)N[C@H](C(=O)N[C@@H](CC(C)C)C(=O)[C@@]1(C)CO1)[C@@H](C)O", "note": "[Epoxomicin]", "values": [{"measurement": "effect of inhibitor on TMP-POM 7c-mediated degradation of CAR", "setting": "[7]", "value": "blocked TMP-POM 7c-mediated degradation of CAR"}, {"measurement": "effect of inhibitor on eDHFR-YFP degradation induced by 7c", "setting": "[3]", "value": "blocks degradation induced by 7c"}]}, {"smiles": "CO/C1=C\\C(C)=C\\[C@@H](C)[C@@H](O)[C@@H](C)C/C(C)=C/C=C/[C@H](OC)[C@@H]([C@@H](C)[C@@H](O)[C@H](C)[C@@]2(O)C[C@@H](O)[C@H](C)[C@@H](C(C)C)O2)OC1=O", "note": "[bafilomycin]", "values": [{"measurement": "effect of inhibitor on TMP-POM 7c-mediated degradation of CAR", "setting": "[7]", "value": "had no impact on TMP-POM 7c function"}]}, {"smiles": "COc1cc(Cc2cnc(N)nc2N)cc(OC)c1OCCCC(=O)NCCOCCNc1cccc2c1C(=O)N(C1CCC(=O)NC1=O)C2=O", "note": "(centres unmarked) [Compound 7b, 4-(4-((2,4-diaminopyrimidin-5-yl)methyl)-2,6-dimethoxyphenoxy)-N-(2-(2-((2-(2,6-dioxopiperidin-3-yl)-1,3-dioxoisoindolin-4-yl)amino)ethoxy)ethyl)butanamide]", "values": [{"measurement": "mechanism of degradation of eDHFR-POI", "setting": "[8]", "value": "primarily via a proteosome-mediated mechanism of degradation"}, {"measurement": "degradation of YFP (eDHFR fusion protein)", "setting": "[6]", "value": "degrade eDHFR fusion proteins to low/no functional expression"}]}, {"smiles": "Cn1cnc(N)c2ncnc1-2", "note": "[3-Methyladenine]", "values": [{"measurement": "effect of inhibitor on eDHFR-YFP degradation induced by 7c", "setting": "[3]", "value": "does not"}]}, {"smiles": "COc1cc(Cc2cnc(N)nc2N)cc(OC)c1OCCCC(=O)NCCOCCOCCOCCOCCOCCOCCNc1cccc2c1C(=O)N(C1CCC(=O)NC1=O)C2=O", "note": "(centres unmarked) [Compound 7e, 4-(4-((2,4-diaminopyrimidin-5-yl)methyl)-2,6-dimethoxyphenoxy)-N-(20-((2-(2,6-dioxopiperidin-3-yl)-1,3-dioxoisoindolin-4-yl)amino)-3,6,9,12,15,18-hexaoxaicosyl)butanamide]", "values": [{"measurement": "degradation of eDHFR-YFP in dose response screen", "setting": "[4]", "value": "no degradation"}, {"measurement": "degradation of YFP (eDHFR fusion protein)", "setting": "[6]", "value": "degrade eDHFR fusion proteins to low/no functional expression"}]}, {"smiles": "NS(=O)(=O)OC[C@@H]1C[C@@H](n2ccc3c(N[C@H]4CCc5ccccc54)ncnc32)C[C@@H]1O", "note": "[MLN4924]", "values": [{"measurement": "effect of inhibitor on TMP-POM 7c-mediated degradation of CAR", "setting": "[7]", "value": "blocked TMP-POM 7c-mediated degradation of CAR"}, {"measurement": "effect of inhibitor on eDHFR-YFP degradation induced by 7c", "setting": "[3]", "value": "blocks degradation induced by 7c"}]}, {"smiles": "CC(C)C[C@@H](C=O)NC(=O)[C@H](CC(C)C)NC(=O)[C@H](CC(C)C)NC(=O)OCc1ccccc1", "note": "[MG132] (Cbz-Leu-Leu-Leu-aldehyde)", "values": [{"measurement": "effect of inhibitor on TMP-POM 7c-mediated degradation of CAR", "setting": "[7]", "value": "blocked TMP-POM 7c-mediated degradation of CAR"}]}]}
